Assay results as given in patent publication US10251874B2, “Crystalline forms of a JAK inhibitor compound” (THERAVANCE BIOPHARMA R&D IP, LLC, priority 2017, dated 2019).
Read-outs that look alike come from different tables or passages of the source.

Experiments:
JAK1 = molecular target: T1, JAK1 (Homo sapiens, UniProt P23458); experiment: Assay 1: LanthaScreen biochemical JAK kinase assay, JAK1; conditions: converted from pIC50 by Cheng-Prusoff; ATP at Km 25 μM; read-out: JAK 1 pKi (converted)
T1 construct: GST; purchased Life Technologies
T1 sequence (P23458 whole entry): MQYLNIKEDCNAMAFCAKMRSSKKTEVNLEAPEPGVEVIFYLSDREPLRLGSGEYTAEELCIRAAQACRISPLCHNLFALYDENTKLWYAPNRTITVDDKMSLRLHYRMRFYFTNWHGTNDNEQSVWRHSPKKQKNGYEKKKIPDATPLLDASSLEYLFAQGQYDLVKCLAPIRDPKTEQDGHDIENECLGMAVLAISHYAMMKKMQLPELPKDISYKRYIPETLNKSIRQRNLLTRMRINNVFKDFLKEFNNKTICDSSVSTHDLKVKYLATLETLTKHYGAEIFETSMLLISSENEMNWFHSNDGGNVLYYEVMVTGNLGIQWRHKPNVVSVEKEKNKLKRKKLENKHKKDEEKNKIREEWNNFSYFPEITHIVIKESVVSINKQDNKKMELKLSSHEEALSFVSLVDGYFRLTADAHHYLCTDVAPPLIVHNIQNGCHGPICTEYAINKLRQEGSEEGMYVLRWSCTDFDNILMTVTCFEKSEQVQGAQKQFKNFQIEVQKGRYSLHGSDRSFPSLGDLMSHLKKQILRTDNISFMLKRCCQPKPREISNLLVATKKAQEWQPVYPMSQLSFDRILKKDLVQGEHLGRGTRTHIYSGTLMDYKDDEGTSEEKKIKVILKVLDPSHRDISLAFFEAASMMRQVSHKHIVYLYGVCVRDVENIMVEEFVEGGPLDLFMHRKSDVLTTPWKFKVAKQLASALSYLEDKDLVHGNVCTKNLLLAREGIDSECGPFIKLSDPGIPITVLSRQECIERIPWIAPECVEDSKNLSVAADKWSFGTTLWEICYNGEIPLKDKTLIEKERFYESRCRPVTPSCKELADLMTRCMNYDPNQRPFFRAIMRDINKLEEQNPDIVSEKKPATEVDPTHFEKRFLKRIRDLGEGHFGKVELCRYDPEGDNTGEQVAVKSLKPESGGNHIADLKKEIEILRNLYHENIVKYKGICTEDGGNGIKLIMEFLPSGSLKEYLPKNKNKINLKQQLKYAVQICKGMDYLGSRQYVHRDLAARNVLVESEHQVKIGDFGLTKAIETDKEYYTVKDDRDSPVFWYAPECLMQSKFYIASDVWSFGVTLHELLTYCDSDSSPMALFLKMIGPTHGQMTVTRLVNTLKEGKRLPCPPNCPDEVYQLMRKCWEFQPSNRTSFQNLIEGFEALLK
Protocol: A panel of four LanthaScreen JAK biochemical assays (JAK1, 2, 3 and Tyk2) were carried in a common kinase reaction buffer (50 mM HEPES, pH 7.5, 0.01% Brij-35, 10 mM MgCl2, and 1 mM EGTA). Recombinant GST-tagged JAK enzymes and a GFP-tagged STAT1 peptide substrate were obtained from Life Technologies.
The serially diluted compound was pre-incubated with each of the four JAK enzymes and the substrate in white 384-well microplates (Corning) at ambient temperature for lh. ATP was subsequently added to initiate the kinase reactions in 10 μL total volume, with 1% DMSO. […] The plates were allowed to incubate at ambient temperature for lh before being read on the EnVision reader (Perkin Elmer). Emission ratio signals (520 nm/495 nm) were recorded and utilized to calculate the percent inhibition values based on DMSO and background controls.
For dose-response analysis, percent inhibition data were plotted vs. compound concentrations, and IC50 values were determined from a 4-parameter robust fit model with the Prism software (GraphPad Software). Results were expressed as pIC50 (negative logarithm of IC50) and subsequently converted to pK1 (negative logarithm of dissociation constant, Ki) using the Cheng-Prusoff equation.

[1] = Assay 12: Ocular pharmacokinetics in rabbit eyes; type: in vivo, New Zealand white rabbits; conditions: for half-life: New Zealand white, vitreous, intravitreal solution formulation, 200 μg/eye and 50 μg/eye
Protocol: The objective of this assay was to determine the pharmacokinetics of the compound 1 in rabbit ocular tissues.
The compound of the invention, 5-ethyl-2-fluoro-4-(3-(5-(1-methylpiperidin-4-yl)-4,5,6,7-tetrahydro-1H-imidazo[4,5-c]pyridin-2-yl)-1H-indazol-6-yl)phenol (1) was dissolved in either 10% 2-hydroxypropyl-β-cyclodextrin to attain a target concentration of 4 mg/mL or in purified water to attain a target concentration of 1 mg/mL . Bilateral intravitreal injection (50 μL/eye) of the solution of test compound was administered to New Zealand white rabbits in two dose groups, 200 μg/eye and 50 μg/eye, respectively, for the cyclodextrin and water vehicle formulations, respectively. The test compound concentration was measured in ocular tissues: vitreous, aqueous, retina/choroid and iris-ciliary body at pre-determined time points post injection (30 min, 4 h, 1 d, 3 d, 7 d, 14 d). Two rabbits (four eyes) were dosed for each time point.
A suspension formulation was prepared by combining crystalline compound 1 of Example 2 with 0.5% hydroxypropyl methylcellulose (HPMC E5)+0.02% Tween 80 to attain a target concentration of 10 mg/mL. Bilateral intravitreal injection (50 μL/eye) of the suspension of test compound was administered to New Zealand white rabbits (500 μg/eye). The test compound concentration was measured in ocular tissues as in the […] at 30 min, 2 wks, 4 wks, 6 wks, and 8 wks post injection. […] The behavior is consistent with the solubility of compound 1 in the vehicle and the ocular pharmacokinetic behavior in the solution formulation. The drug concentration in plasma was measured and found to be at least 3 orders of magnitude lower than the concentration in vitreous tissue.

[2] = system: IFNγ induced CXCL10 secretion in EpiAirway tissue cultures; experiment: Assay 15: IFNγ induced CXCL10 in human 3D airway cultures; type: cell-based; conditions: 192 h, Day 8, average from 3 or 4 donors, read-out: % inhibition of IFNγ induced CXCL10 secretion (±STDV)
Protocol: EpiAirway tissue cultures were obtained from Mattek (AIR-100). Cultures were derived from asthmatic donors. In a cell culture insert, human derived tracheal/bronchial epithelial cells were grown and differentiated on a porous membrane support, allowing an air-liquid interface with warmed culture medium below the cells and a gaseous test atmosphere above. Tissues were cultured in maintenance media (Mattek, AIR-100-MM) in a 37° C., 5% CO2 humidified incubator. Four donors were tested. On Day 0, tissue cultures were treated with test compounds at 10 μM, 1 μM and/or 0.1 μM. Compounds were diluted in dimethyl sulfoxide (DMSO, Sigma) to a final concentration of 0.1%. DMSO at 0.1% was used as a vehicle control. Test compounds were incubated with cultures for 1 hour at 37° C., 5% CO2, followed by the addition of pre-warmed media containing IFNγ (R&D Systems) or IL-27 (R&D Systems) at a final concentration at 100 ng/ml. Tissue cultures were maintained for 8 days. Media was replaced every 2 days with fresh media containing compounds and IFNγ or IL-27. On Day 8, tissue cultures and supernatants were collected for analysis. […] Data is expressed as % Inhibition +/−standard deviation (±STDV). Percent inhibition was determined by compound inhibitory potency against IFNγ or IL-27 induced CXCL10 or CXCL9 secretion compared to vehicle treated cells. […]

## CCc1cc(O)c(F)cc1-c1ccc2c(-c3nc4c([nH]3)CCN(C3CCN(C)CC3)C4)n[nH]c2c1 [Compound 1, 5-ethyl-2-fluoro-4-(3-(5-(1-methylpiperidin-4-yl)-4,5,6,7-tetrahydro-1H-imidazo[4,5-c]pyridin-2-yl)-1H-indazol-6-yl)phenol]
JAK1
  Ki: 0.0631 nM
[1]; read-out: half-life of initial decrease in concentration in vitreous tissue (converted)
  half-life: ~12 h
[1]; read-out: terminal half-life in vitreous tissue (converted)
  half-life: ~86.4 h
[1]; intravitreal suspension of crystalline compound 1 of Example 2, 500 μg/eye, 30 min to 6 weeks
  clearance rate (linear decrease in drug concentration in the vitreous): approximately 3 μg/mL/day
[2]; at 0.1 μM
  inhibition at 0.1 µM: 17%
[2]; at 10 μM
  inhibition at 10 µM: 99%
